Assay: xn = mol fraction of the nth substance listed

C1CCOC1 + Cc1ccccc1
303.15 K, 101.33 kPa
Settings | viscosity [mPa·s]
x1 = 0.1014 | 0.52
x1 = 0.1984 | 0.518
x1 = 0.3066 | 0.512
x1 = 0.3662 | 0.51
x1 = 0.4984 | 0.499
x1 = 0.5997 | 0.489
x1 = 0.702 | 0.479
x1 = 0.7981 | 0.467
x1 = 0.8997 | 0.453

CC1COC(=O)O1 (stereo not given) + Cc1ccc(C)cc1
viscosity [mPa·s], 101 kPa
Settings | 298.15 K | 308.15 K
x1 = 0.0227 | 0.6155 | 0.5443
x1 = 0.0397 | 0.6246 | 0.5534
x1 = 0.0573 | 0.6333 | 0.5634
x1 = 0.0816 | – | 0.5779
x1 = 0.098 | 0.6527 | 0.5884
x1 = 0.209 | 0.728 | 0.6727
x1 = 0.3029 | 0.8062 | 0.7639
x1 = 0.3993 | 0.9317 | 0.8783
x1 = 0.5028 | 1.116 | 1.026
x1 = 0.5978 | 1.316 | 1.184
x1 = 0.7068 | 1.584 | 1.394
x1 = 0.8012 | 1.856 | 1.599
x1 = 0.8996 | 2.149 | 1.835

COc1ccccc1 + CCCCO
viscosity [mPa·s]
Settings | 303 K | 303.15 K | 313 K | 313.15 K | 323 K | 323.15 K
100 kPa, x1 = 0.121 | 1.831 | – | 1.255 | – | 1.031 | –
100 kPa, x1 = 0.236 | 1.534 | – | 1.069 | – | 0.8722 | –
100 kPa, x1 = 0.346 | 1.297 | – | 0.9238 | – | 0.7426 | –
100 kPa, x1 = 0.452 | 1.128 | – | 0.8353 | – | 0.6858 | –
100 kPa, x1 = 0.553 | 1.049 | – | 0.7844 | – | 0.6551 | –
100 kPa, x1 = 0.65 | 0.9984 | – | 0.7302 | – | 0.6131 | –
100 kPa, x1 = 0.742 | 0.9819 | – | 0.7012 | – | 0.5948 | –
100 kPa, x1 = 0.832 | 0.9796 | – | 0.6884 | – | 0.5673 | –
100 kPa, x1 = 0.918 | 0.9769 | – | 0.6724 | – | 0.5517 | –
101.33 kPa, x1 = 0.1002 | – | 1.874 | – | 1.48 | – | 1.165
101.33 kPa, x1 = 0.2 | – | 1.523 | – | 1.254 | – | 0.989
101.33 kPa, x1 = 0.3001 | – | 1.359 | – | 1.075 | – | 0.899
101.33 kPa, x1 = 0.3998 | – | 1.197 | – | 0.975 | – | 0.806
101.33 kPa, x1 = 0.5 | – | 1.079 | – | 0.889 | – | 0.75
101.33 kPa, x1 = 0.6002 | – | 1.001 | – | 0.851 | – | 0.734
101.33 kPa, x1 = 0.7 | – | 0.952 | – | 0.805 | – | 0.721
101.33 kPa, x1 = 0.8003 | – | 0.929 | – | 0.788 | – | 0.709
101.33 kPa, x1 = 0.9 | – | 0.914 | – | 0.772 | – | 0.698

CC(C)=O + CCCCCCC
296 K, 101.3 kPa
Settings | viscosity [mPa·s]
x1 = 0.0795 | 0.385
x1 = 0.1252 | 0.377
x1 = 0.1699 | 0.37
x1 = 0.2532 | 0.362
x1 = 0.3008 | 0.358
x1 = 0.3956 | 0.351
x1 = 0.4536 | 0.347
x1 = 0.5061 | 0.342
x1 = 0.6193 | 0.333
x1 = 0.6981 | 0.328
x1 = 0.7504 | 0.321
x1 = 0.8116 | 0.316
x1 = 0.8666 | 0.314
x1 = 0.9144 | 0.309
x1 = 0.9678 | 0.311

CC1COC(=O)O1 (stereo not given) + Cc1ccccc1
viscosity [mPa·s], 101.3 kPa
Settings | 293.15 K | 298.15 K | 303.15 K | 308.15 K
x1 = 0.0911 | 0.6805 | 0.6333 | 0.5934 | 0.5572
x1 = 0.1223 | – | – | 0.6125 | –
x1 = 0.1841 | 0.7726 | 0.719 | 0.6689 | 0.6294
x1 = 0.2385 | – | – | 0.7127 | –
x1 = 0.2789 | 0.8738 | 0.8139 | 0.7586 | 0.7171
x1 = 0.3493 | – | – | 0.824 | –
x1 = 0.3757 | 1.006 | 0.9358 | 0.8694 | 0.8243
x1 = 0.4553 | – | – | 0.9463 | –
x1 = 0.4744 | 1.149 | 1.074 | 0.9983 | 0.9407
x1 = 0.5561 | – | – | 1.085 | –
x1 = 0.5752 | 1.292 | 1.195 | 1.103 | 1.03
x1 = 0.6524 | – | – | 1.244 | –
x1 = 0.678 | 1.529 | 1.404 | 1.304 | 1.203
x1 = 0.7452 | – | – | 1.431 | –
x1 = 0.7831 | 1.856 | 1.69 | 1.549 | 1.42
x1 = 0.8335 | – | – | 1.646 | –
x1 = 0.8904 | 2.256 | 2.048 | 1.869 | 1.71
x1 = 0.9188 | – | – | 1.888 | –

CC(=O)C1CCOC1=O (stereo not given) + CC(=O)C1CC1
101.3 kPa
Settings | viscosity [mPa·s]
303.15 K, x2 = 0.0998 | 3.195
313.15 K, x2 = 0.3004 | 1.945

— the CheMixHub viscosity set
